One assay addresses T1, Protein RecA (Mycobacterium tuberculosis, UniProt P9WHJ3).
T1 sequence (P9WHJ3 whole entry): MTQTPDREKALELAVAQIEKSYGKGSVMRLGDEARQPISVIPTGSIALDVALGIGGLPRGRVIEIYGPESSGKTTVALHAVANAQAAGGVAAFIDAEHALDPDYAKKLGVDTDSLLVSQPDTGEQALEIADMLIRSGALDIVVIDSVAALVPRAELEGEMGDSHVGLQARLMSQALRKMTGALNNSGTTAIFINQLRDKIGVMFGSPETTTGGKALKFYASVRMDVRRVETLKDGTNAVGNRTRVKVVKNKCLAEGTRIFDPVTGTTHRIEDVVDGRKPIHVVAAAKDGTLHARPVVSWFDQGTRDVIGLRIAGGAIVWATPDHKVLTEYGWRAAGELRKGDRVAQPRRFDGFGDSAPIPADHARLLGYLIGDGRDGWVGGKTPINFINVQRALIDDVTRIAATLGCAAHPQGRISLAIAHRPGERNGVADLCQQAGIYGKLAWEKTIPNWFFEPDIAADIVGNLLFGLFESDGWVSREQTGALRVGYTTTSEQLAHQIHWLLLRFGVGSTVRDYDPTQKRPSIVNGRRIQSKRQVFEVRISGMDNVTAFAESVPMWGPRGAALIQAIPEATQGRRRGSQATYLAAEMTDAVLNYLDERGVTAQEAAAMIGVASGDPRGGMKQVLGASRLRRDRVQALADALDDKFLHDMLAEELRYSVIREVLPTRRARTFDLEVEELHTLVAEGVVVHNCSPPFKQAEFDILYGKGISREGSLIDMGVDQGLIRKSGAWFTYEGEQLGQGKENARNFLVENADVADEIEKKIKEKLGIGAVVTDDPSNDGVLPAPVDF
Description: Fluorescence Cell-Free Homogeneous Dose Retest to Identify Inhibitors of RecA-Intein Splicing Activity. [Related pubchem assays (depositor defined):AID2097, AID2223, AID489010, AID492950]. The assay is classed as functional.

The target in the next assay is T2, ORF 73 (Human herpesvirus 8, UniProt O40947).
T2 sequence (O40947 whole entry): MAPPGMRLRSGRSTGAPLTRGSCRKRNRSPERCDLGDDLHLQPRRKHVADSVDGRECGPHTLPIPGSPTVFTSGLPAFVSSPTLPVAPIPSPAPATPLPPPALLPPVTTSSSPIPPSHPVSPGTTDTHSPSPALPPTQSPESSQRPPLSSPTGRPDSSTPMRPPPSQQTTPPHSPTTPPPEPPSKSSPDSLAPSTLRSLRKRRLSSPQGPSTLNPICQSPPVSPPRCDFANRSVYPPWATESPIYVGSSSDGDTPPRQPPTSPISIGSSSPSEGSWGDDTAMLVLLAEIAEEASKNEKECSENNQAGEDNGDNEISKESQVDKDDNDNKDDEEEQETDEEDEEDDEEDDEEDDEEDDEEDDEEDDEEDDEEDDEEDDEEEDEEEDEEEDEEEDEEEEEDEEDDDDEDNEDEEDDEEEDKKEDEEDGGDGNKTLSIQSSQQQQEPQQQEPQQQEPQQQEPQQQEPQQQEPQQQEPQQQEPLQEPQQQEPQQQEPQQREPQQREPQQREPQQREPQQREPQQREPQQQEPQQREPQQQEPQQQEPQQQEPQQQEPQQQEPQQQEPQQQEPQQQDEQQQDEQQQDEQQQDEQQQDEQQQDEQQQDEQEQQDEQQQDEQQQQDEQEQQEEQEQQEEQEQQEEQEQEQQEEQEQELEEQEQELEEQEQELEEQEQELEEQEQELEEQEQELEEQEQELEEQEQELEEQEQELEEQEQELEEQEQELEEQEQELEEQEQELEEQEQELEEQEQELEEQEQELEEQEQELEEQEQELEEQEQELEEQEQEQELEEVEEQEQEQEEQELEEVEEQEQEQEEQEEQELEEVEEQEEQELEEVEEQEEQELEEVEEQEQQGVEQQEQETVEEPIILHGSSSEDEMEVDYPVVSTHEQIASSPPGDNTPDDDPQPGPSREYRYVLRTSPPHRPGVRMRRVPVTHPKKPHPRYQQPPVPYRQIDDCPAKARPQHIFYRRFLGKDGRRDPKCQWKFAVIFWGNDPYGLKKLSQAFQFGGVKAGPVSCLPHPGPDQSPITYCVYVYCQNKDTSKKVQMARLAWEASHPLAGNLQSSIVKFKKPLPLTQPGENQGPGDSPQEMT
Description: inhibitors of C-LANA binding to LBS DNA, dose response, biochemical, fluorescence polarization, cherry-picked samples (AID 504725).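 Further: fluorescence polarization of a labeled DNA duplex reporting LANA DNA binding; potency is for inhibitors that block LANA binding to the DNA.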 Details: species or system Human gammaherpesvirus 8. On the technique in general: Fluorescence polarisation rises when a labelled molecule tumbles more slowly, as on binding a larger partner.

Molecules are shown by their SMILES. The source made the active and inactive calls.

As a reminder, the EC50 is the concentration needed to bring the measured effect to its halfway point. One may read the AC50 as the midpoint of the concentration-response curve, whichever way the signal moves.

For `CCN(CC)CCN1C(=O)c2cccc3cc(N)cc(c23)C1=O`, the EC50 at Protein RecA was 0.209 µM (active). Also, the AC50 at ORF 73 is 17.1 µM (active).
Turning to `O=C(O)c1cccc(-n2cccc2/C=C2/NC(=O)N(c3ccc(Cl)cc3)C2=O)c1`, the concentration at half-maximal activity (AC50) at ORF 73 is 23.3 µM (active).
On to `C=C1C(=O)O[C@@H]2C[C@@H](C)[C@@H]3C=CC(=O)[C@@]3(C)[C@@H](OC(=O)CC(=O)O[C@H]3[C@@H]4C(=C)C(=O)O[C@@H]4C[C@@H](C)[C@@H]4C=CC(=O)[C@]43C)[C@H]12`, for which the half-maximal effective concentration (EC50) at Protein RecA was 46 µM (active).
As to `O=S(=O)(O)c1cc(Cl)cc(N=Nc2ccc(O)cc2O)c1O`, on ORF 73, the AC50 is 70.2 µM (active).

The values above are taken from ChEMBL document CHEMBL1201862, “PubChem BioAssay data set” (2004).
